Values after ≈ are worked out from the molar mass of the structure shown.
Settings: buffer; pH 7.4; 200.0 µM

SMILES	solubility kinetic [µg/mL]
Cc1ccc(N2C(=O)Nc3ccccc3S2(=O)=O)cc1Cl	0.8 (≈ 2.48 µM)
Cl.O=[N+]([O-])c1ccccc1OCC(O)CNC1CCCC1 (stereo not drawn)	46.2
COC(=O)/C=C1/SC(=NC(=O)c2ccc(F)cc2)NC1=O	> 46.2
O=C(O)c1ccc(C(=O)Nc2cccc3ccccc23)c(C(=O)O)c1	> 50.3
COc1cccc(-c2noc(-c3ccc(Br)o3)n2)c1	0.5 (≈ 1.56 µM)
Cc1ccc(Cl)c(NC(=O)CN2CCNC(=O)C2)c1Cl	> 47.4
O=C(Nc1cccc(F)c1)C1CCN(C(=O)NCc2ccccc2)CC1	9.2 (≈ 25.9 µM)
N#CCCN(Cc1cccs1)C(=O)Nc1ccccc1	41.1 (≈ 144 µM)
Cc1cccc(-c2noc(-c3c(C)noc3C)n2)c1	< 0.2
O=C(CN1C(=O)NC2(CCc3ccccc32)C1=O)NCc1ccc(Cl)cc1 (stereo not drawn)	> 57.6
CCNC(=O)COC(=O)CCC(=O)c1ccc(F)cc1	> 42.2
CN(C)S(=O)(=O)c1ccc(NC(=O)Cn2ccsc2=N)cc1	48 (≈ 141 µM)
CCOc1ccccc1NC(=O)C1C2CCC(O2)C1C(=O)O (stereo not drawn)	> 45.8
C=CCn1c(NC(=O)c2ccc(C)cc2)nc2ccccc21	< 0.2
COc1ccc(N2C(S)=C(C#N)C(=O)NC23CCCCC3)cc1	19.3 (≈ 58.6 µM)
O=C(CN1C(=O)NC2(CCCCCC2)C1=O)NCc1ccc(Cl)cc1	23.5 (≈ 64.6 µM)
O=C(CN1CCCCCC1)Nc1ccc([N+](=O)[O-])cc1Br	3 (≈ 8.42 µM)
O=C(O)c1ccc(/C=N/NC(=S)NCCN2CCOCC2)cc1	> 50.5
Cc1cc(NS(=O)(=O)c2ccc(NC(=O)C3CCCCC3)cc2)no1	44.1 (≈ 121 µM)
C/C=C/C(=O)OCC(=O)Nc1ccc(OC)c(OC)c1	> 41.9

SMILES	solubility kinetic [µg/mL]
COc1ccccc1CNC(=O)COC(=O)/C=C/c1ccc2c(c1)OCO2	5.4 (≈ 14.6 µM)
CC(c1ccccc1)C1CC(=O)N(c2ccc([N+](=O)[O-])cc2)C1=O (stereo not drawn)	32.5 (≈ 100 µM)
OCc1c[nH]c(=S)n1CCOc1cccc(C(F)(F)F)c1	5.5 (≈ 17.3 µM)
Cc1ccc(NC(=O)Nc2ccc3c(c2)CCC3)cc1	< 0.3
COc1cccc(C(O)c2cnc(C(C)C)n2C)c1 (stereo not drawn)	> 39.1
CCc1ccc(N2C(=O)CC(=O)NC2=O)cc1	> 34.8
CCOc1ccccc1N1CCN(C(=O)c2ccc3nc(N)sc3c2)CC1	7.5 (≈ 19.6 µM)
CN(c1ccccc1C(=O)Nc1ccc2ccccc2c1)S(C)(=O)=O	48.6 (≈ 137 µM)
C/C(CC(=O)Nc1cccc(F)c1)=N\NC(=O)c1ccncc1	> 47.1
CCN1CCC(O)(C#Cc2ccccc2)CC1	33.5 (≈ 146 µM)
COc1ccc(-c2nsc(SCC(=O)NCC3CCCO3)n2)cc1 (stereo not drawn)	> 54.8
O=C(NC12CC3CC(CC(C3)C1)C2)c1cc([N+](=O)[O-])ccc1Cl	0.6 (≈ 1.79 µM)
CCc1ccc(N2CN(CCc3ccccc3)CNC2=S)cc1	1.6 (≈ 4.92 µM)
CC(=O)c1ccc(NC(=O)c2cc3ccccc3o2)cc1	1 (≈ 3.58 µM)
COc1ccc(S(=O)(=O)NC(C)C(=O)N2CCCC2)cc1C (stereo not drawn)	41.9 (≈ 128 µM)
Cc1cc(OCC(O)CNC(C)c2ccccc2)ccc1C(C)C.Cl (stereo not drawn)	45.3
CC(C)C(=O)Nc1cc(C(F)(F)F)ccc1-n1ccnc1	38.8 (≈ 131 µM)
CCC1Oc2ccccc2N(CC(=O)NC2CCCCC2)C1=O (stereo not drawn)	43.9 (≈ 139 µM)
CC(=O)c1ccc(NC(=O)c2cc(C)no2)cc1	13.3 (≈ 54.5 µM)
Cc1cccc2c(CCN)c[nH]c12.Cl	> 31.6

SMILES	solubility kinetic [µg/mL]
COc1ccc(C(=O)Nc2nccs2)cc1	8.1 (≈ 34.6 µM)
CC(C)COc1ccc(Cc2c(O)[nH]c(=S)[nH]c2=O)cc1	28.9 (≈ 94.3 µM)
O=C(O)C1CN(C(=O)c2ccccc2)c2cc(Cl)ccc2O1 (stereo not drawn)	> 47.7
CCN(C(=O)COc1ncnc2ccccc12)C1CCCCC1	> 47
C[C@H](NS(=O)(=O)c1ccccc1)C(=O)N1CCN(C(c2ccccc2)c2ccccc2)CC1	16.2 (≈ 34.9 µM)
CCOC(=O)C1CCN(S(=O)(=O)c2ccc(C)c(C)c2)CC1	4.5 (≈ 13.8 µM)
O=c1sc2ccccc2c(N2CCOCC2)c1[N+](=O)[O-]	12.8 (≈ 43.8 µM)
CCOC(=O)c1c(C)n(C)c2cc(Br)c(OC)cc12	< 0.7
COc1ccc(O)c(C(=O)c2cnc3c(c2)CN(C)C(=O)N3)c1	8 (≈ 25.5 µM)
Cl.O=C(COc1ccc(F)cc1)NCCN1CCCC1	> 45.4
CC(C)=CC(=O)N1CC[C@@H](N2CCN(c3ccccc3F)CC2)[C@H](O)C1	> 54.2
CC(=O)N(Cc1cc(=O)[nH]c2ccccc12)c1ccc(C)cc1C	> 48.1
O=C(NNC(=O)C12CC3CC(CC(C3)C1)C2)c1ccccc1F	> 47.5
CN(CC(=O)Nc1cccc(F)c1)C(=O)C1=COCCO1	> 44.1
COc1cccc(C2/C(=C(/O)c3ccc4c(c3)CC(C)O4)C(=O)C(=O)N2CC2CCCO2)c1 (stereo not drawn)	64.7 (≈ 144 µM)
CC(NC(=O)c1ccccc1F)C1CC1 (stereo not drawn)	> 31.1
COc1cc(OC)c(C(=O)Nc2cccc3ccccc23)cc1OC	< 0.7
CC(=O)c1cn(C2OC(CO)C3OC(C)(C)OC32)c(=O)n(C)c1=O (stereo not drawn)	48.9 (≈ 144 µM)
